In this experiment the test system is RAW264.7. Nature of the experiment: Inhibition of LPS-stimulated nitric oxide production in […] RAW264.7 cells after 24 hrs by Griess assay. The class given is functional, cell-based. To be noted: Mus musculus; for IC50: RAW264.7, 24 h. (The Griess reaction detects nitrite, a stable product of nitric oxide.)

SMILES strings stand for the structures. Bounds are passed on as bounds.

`CC(C)CC(=O)OCC1=CO[C@@H](OC(=O)CC(C)C)[C@H]2C1=C[C@H](O)[C@]2(O)CO`: the IC50 is over 50 µM. Compound `CC(C)CC(=O)OCC1=COC=C2C1=CC(=O)[C@]2(O)CCl` displayed an IC50 of 27.6 µM. Turning to `CC(C)CC(=O)OCC1=COC=C2C1=CC(=O)[C@]2(O)COC(=O)CC(C)C`, the inhibition result was “Dose-dependent effect” and the IC50 amounted to 17.1 µM. For the compound `COc1cc([C@@H](O)[C@@H](COC(=O)CC(C)C)Oc2c(O)cc(/C=C/COC(=O)CC(C)C)cc2OC)cc(OC)c1O`, the inhibition result is “Dose-dependent effect” and it took 17.8 µM to reach half-maximal inhibition (IC50).

In the case of `CC(C)CC(=O)OCC1=CO[C@H](OC(=O)CC(C)C)[C@H]2C1(O)C[C@@H](O)[C@]2(O)COC(=O)CC(C)C` (some centres undefined), the inhibition entry was “Dose-dependent effect” and the IC50 came out at 14.7 µM. With `CC(C)CC(=O)OCC1=CO[C@H](OC(=O)CC(C)C)[C@@H]2[C@@](O)(COC(=O)CC(C)C)[C@H](O)C[C@]12O`, the IC50 was 26 µM.

As usually defined, the IC50 is the concentration at which inhibition is half-maximal.

The values above are taken from ChEMBL document CHEMBL4145603, “Iridoids from the Roots of Patrinia scabra and Their Inhibitory Potential on LPS-Induced Nitric Oxide Production” (J Nat Prod, 2018).
